Experimental data as given in US7498406B2, “Substantially cell membrane impermeable compound and use thereof” (priority 1999, dated 2009).

Key:
Thioredoxin = biological target: T1, Thioredoxin (Homo sapiens, UniProt P10599); assay: GSAO-B labelling of purified protein, streptavidin-peroxidase blot; type: binding; conditions: 100 μM GSAO-B, 5 μM protein, 30 minutes
T1 construct: purchased American Diagnostica, Greenwich, Conn; host or cells: E. coli
Protocol: (§1) FIG. 14. Interaction of GSAO-B with PDI and thioredoxin. A Structure of GSAO-B. B Purified human recombinant PDI (5 μM), human recombinant thioredoxin (5 μM) or bovine serum albumin (5 ? M) was incubated with dithiothreitol (10 μM) for 60 minutes at room temperature to ensure that the active site disulfide(s) of PDI and thioredoxin were in the reduced dithiol form. GSAO-B (100 ? M) or GSAO-B and DMP (400 μM) was then added and the reactions incubated for 30 minutes at room temperature. The labelled PDI (lanes 1 and 2), thioredoxin (lanes 3 and 4) and albumin (lane 5) (75 pmoles) was resolved on […] SDS-PAGE, transferred to PVDF membrane, and blotted with streptavidin-peroxidase to detect the GSAO-B label. The positions of Mr markers are shown at left.
(§2) Human recombinant PDI and thioredoxin bound GSAO-B (FIG. 14). Recombinant human protein disulfide isomerase (PDI) was produced in E. coli and purified according to Jiang et al. (1999). In the experiment, purified PDI, thioredoxin or albumin as negative control were incubated with a 2-fold molar excess of dithiothreitol for 60 minutes to ensure that the active site disulfides of PDI and thioredoxin were in the reduced dithiol state. The proteins were then incubated with GSAO-B or GSAO-B and a 4-fold molar excess of DMP for 30 minutes. Equivalent moles of the labeled proteins were resolved on SDS-PAGE, transferred to PVDF membrane, and blotted with streptavidin-peroxidase to detect the GSAO-B label. Samples were resolved on 4-15% SDS-PAGE under non-reducing conditions (Laemmli, 1970) and transferred to PVDF membrane. Proteins were detected by Western blot using an anti-PDI murine monoclonal antibody (Jiang et al., 1999) (used at 2 μg per mL). Rabbit anti-mouse horseradish peroxidase conjugated antibodies (Dako Corporation, Carpinteria, Calif.) were used at 1:2000 dilution. GSAO-B-labeled proteins were blotted with streptavidin peroxidase (Amersham, Sydney, NSW) used at 1:1000 dilution. […] Chemiluminescence films were analysed using a GS-700 Imaging Densitometer and Multi-Analyst software (Bio-Rad, Hercules, Calif.).

human recombinant PDI = biological target: T2, human recombinant PDI (Homo sapiens, UniProt P07237); assay: as above; type: binding
T2 construct: made in house; host or cells: E. coli
Protocol: as §1, §2

bovine serum albumin = bovine serum albumin (Bos taurus, UniProt P02769); assay: GSAO-B labelling of purified protein, streptavidin-peroxidase blot (negative control protein); type: binding; conditions: 100 μM GSAO-B, 5 μM protein, 30 minutes
Protocol: as §1
Human recombinant PDI and thioredoxin bound GSAO-B (FIG. 14). Recombinant human protein disulfide isomerase (PDI) was produced in E. coli and purified according to Jiang et al. (1999). […] Proteins were detected by Western blot using an anti-PDI murine monoclonal antibody (Jiang et al., 1999) (used at 2 μg per mL). […] Chemiluminescence films were analysed using a GS-700 Imaging Densitometer and Multi-Analyst software (Bio-Rad, Hercules, Calif.).

HMEC-1 or HUVE cells = assay: GSAO-B labelling of endothelial cell surface proteins; type: cell-based, human
Protocol: FIG. 16. Identification of endothelial cell surface proteins that contain closely spaced dithiols). A The surface of HMEC-1 or HUVE cells (2×10^6 cells in 0.4 mL) was labelled with GSAO-B (100 μM) for 30 minutes at room temperature in the absence (lanes 1 and 3) or presence of DMP (400 μM) (lane 2). The endothelial cells were lysed and the lysate from both incubations was resolved on 4-15% SDS-PAGE, transferred to PVDF membrane, and blotted with streptavidin peroxidase to detect the GSAO-B label. The results represent labelling of 3×10^4 HMEC-1 (lanes 1 and 2) of HUVE cells (lane 3). The positions of Mr markers are shown at left. B Densitometry profile of the surface labelled proteins (lanes 1 and 3). The apparent Mr's of the individual proteins are indicated.
Human umbilical vein endothelial cells (HUVEC) (Wall et al., 1978) and the human dermal microvascular endothelial cell line, HMEC-1 (Ades et al., 1992), were harvested and cultured as indicated. Endothelial cells (5×10^6) were detached from culture flasks using 5 mM EDTA in PBS at 37° C., washed 3 times with PBS, resuspended in PBS containing 100 μM of GSAO-B in the absence or presence of 400 μM DMP, and incubated for 30 minutes at room temperature. The cells were washed 3 times with 1 mL of PBS, resuspended in 0.2 mL of ice cold 50 mM Tris/HCl, pH 8 buffer containing 0.5 M NaCl, 1% Triton X-100, 10 μM leupeptin, 2 mM PMSF (Sigma Chemical Company, St, Louis, Mo.), 5 mM EDTA and 10 μM aprotinin (Bayer Australia Ltd., Sydney, NSW), and sonicated on ice. On some occasions the cell lysates were incubated with streptavidin-agarose (Sigma, Castle Hill, NSW) beads (25 μL of packed beads in a total volume of 1 mL) for 60 minutes at 4° C. with rotary mixing. Bound proteins were washed 5 times with 50 mM Tris/HCl, pH 8 buffer containing 0.15 M NaCl and 0.05% Triton X-100, resolved on SDS-PAGE, transferred to PVDF membrane, and the GSAO-B-labeled proteins detected by Western blot.

PDI = assay: GSAO-B labelling of PDI on the endothelial cell surface; type: cell-based; conditions: 100 μM GSAO-B, 30 minutes
Protocol: FIG. 17. PDI was one of the GSAO-B labelled proteins on the endothelial cell surface. HUVEC (5×10^6 cells in 0.75 mL) were labelled with GSAO-B (100 μM) for 30 minutes at 37° C. in the absence (lanes 1) or presence of DMP (400 μM) (lane 2). The cells were lysed and incubated with streptavidin-agarose beads to collect the biotin-labelled proteins. The labelled proteins were resolved on 4-15% SDS-PAGE, transferred to PVDF membrane, and blotted with anti-PDI monoclonal antibodies. The results represent labelling of 5×10^6 endothelial cells. The positions of Mr markers are shown at left.
BAE cells were labeled with GSAO-B in the absence or presence of DMP, lysed and incubated with streptavidin-agarose beads to collect the biotin-labeled proteins. The labeled proteins were eluted from the beads, resolved on SDS-PAGE, transferred to PVDF membrane, and blotted with anti-PDI polyclonal antibodies.

cell surface CD4 = biological target: T3, cell surface CD4 (Homo sapiens, UniProt P01730); assay: Labelling of cell surface CD4 on CEM-T4 cells; type: cell-based; conditions: 100 μM, 30 min
T3 construct: host or cells: CEM-T4
Protocol: FIG. 32. Labelling of cell surface CD4 with GSAO-B. CEM-T4 were labelled with either MPB or GSAO-B. The biotin-labelled proteins were collected on streptavidin-agarose beads, resolved on 5-15% SDS-PAGE and Western blotted using Leu3a monoclonal antibody. Lane 1 is MPB-labelled CEM-T4 CD4 and lane 2 is GSAO-B-labelled CEM-T4 CD04. Lane 3 is a control experiment where GSAO-B was incubated with CEM-T4 cells in the presence of 400 μM DMP. Biotin-labelled proteins were from 2×10^6 cells. The positions of Mr markers in kDa are shown at left.
CEM-T4 cells were obtained from the NIH AIDS Research and Reference Reagent Program, Rockville, Mass., CEM-T4 (1 mL of 5×10^6 per mL in Hanks balanced salt solution) were incubated with either sulfosuccinimidobiotin (SSB), 3-(N-maleimidylpropionyl)biocytin (MPB), or GSAO-B (100 μM) for 30 min at room temperature SSB was from Pierce, Rockford, Ill. while MPB was from Molecular Probes, Eugene, Oreg.. Unreacted SSB was quenched with glycine (200 μM), while unreacted MPB was quenched with reduced glutathione (GSH, 200 μM) for 30 min at room temperature. The labelled cells were washed twice with PBS and sonicated in 1 mL of 50 mM Tris-HCl, 0.5 M NaCl, 1% (v/v) Triton X-100, 10 μM leupeptin, 10 μM aprotinin, 2 mM phenylmethylsulfonyl fluoride, 5 mM EDTA, pH 8.0 buffer at 4° C. […]
Labelled CD4 was detected by blotting with the Leu3a monoclonal antibody (FIG. 32).

[1] = Stability of the trivalent arsenicals towards oxidation; type: physicochemical; conditions: slowed by removal of O2, lower pH or glycine
From the text: This oxidation can be slowed in three ways; removal of dissolved O2 from solutions containing the arsenoxides, lowering the pH of these solutions, or by addition of glycine to the solutions. Glycine is routinely used to prevent oxidation of the stock solutions of the trivalent organoarsenicals. Similar to the reaction between 2,3-dimercaptopropanol and R—As(OH)2 in which a 5-membered dithioarsonite (XI) is formed, reaction of glycine with R—As(OH)2 is thought to give a 5-membered cyclic 1,3,2-oxazarsolidin-5-one (XII).

HIVIIIB = HIVIIIB entry into / infection of A3.01 cells, p24 antigen; type: cell-based, HIV; conditions: 100 μM, 30 minutes before virus
Protocol: FIG. 33. […] Cells were washed and incubated in complete medium at 5% CO2 and 37° C. for up to 10 days. […] B Concentration dependence of GSAO. […] Cells were washed, incubated in complete medium at 5% CO2 and 37° C. for 3 days and the conditioned medium collected and assayed for p24 antigen.
FIG. 34. Inhibition of HIVIIIB infection of A3.01 cells by GSAO.
A3.01 human T cells were exposed to GSAO for 30 minutes and then to HTLVIIIB virus for 2 hours after which the cells were washed and then cultured for up to 10 days. HTLVIIIB and A3.01 cells were obtained from the NIH AIDS Research and Reference Reagent Program, Rockville, Mass. Virus stocks were made and infectivity titer determined using A3.01 cells and the p24 antigen assay (Coulter, Miami, Fla.). A3.01 cells were cultured in RPMI medium containing 10% fetal calf serum. […] Cell numbers and cell viability were determined at the times specified by staining cells with trypan blue and counting using a Neubauer haemacytometer. Cell viability was measured as a percentage of live cells to total cells.

T2 sequence (P07237 18-508): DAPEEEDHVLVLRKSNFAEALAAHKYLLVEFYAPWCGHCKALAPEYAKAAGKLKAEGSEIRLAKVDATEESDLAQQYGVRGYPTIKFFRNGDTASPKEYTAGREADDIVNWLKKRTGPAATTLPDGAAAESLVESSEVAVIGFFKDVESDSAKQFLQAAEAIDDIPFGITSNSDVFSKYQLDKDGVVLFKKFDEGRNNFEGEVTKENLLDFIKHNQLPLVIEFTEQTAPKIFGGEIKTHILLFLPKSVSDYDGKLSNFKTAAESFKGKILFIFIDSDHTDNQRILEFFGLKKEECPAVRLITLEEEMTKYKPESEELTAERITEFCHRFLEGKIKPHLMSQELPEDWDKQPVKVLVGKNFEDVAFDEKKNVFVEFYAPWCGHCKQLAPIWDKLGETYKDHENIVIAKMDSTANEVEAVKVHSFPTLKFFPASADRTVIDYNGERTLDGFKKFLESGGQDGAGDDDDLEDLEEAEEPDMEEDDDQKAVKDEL
T1 sequence (P10599 whole entry): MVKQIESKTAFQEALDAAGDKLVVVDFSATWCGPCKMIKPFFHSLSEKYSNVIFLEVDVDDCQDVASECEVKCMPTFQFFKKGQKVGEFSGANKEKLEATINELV
Sequence of bovine serum albumin (P02769 25-607): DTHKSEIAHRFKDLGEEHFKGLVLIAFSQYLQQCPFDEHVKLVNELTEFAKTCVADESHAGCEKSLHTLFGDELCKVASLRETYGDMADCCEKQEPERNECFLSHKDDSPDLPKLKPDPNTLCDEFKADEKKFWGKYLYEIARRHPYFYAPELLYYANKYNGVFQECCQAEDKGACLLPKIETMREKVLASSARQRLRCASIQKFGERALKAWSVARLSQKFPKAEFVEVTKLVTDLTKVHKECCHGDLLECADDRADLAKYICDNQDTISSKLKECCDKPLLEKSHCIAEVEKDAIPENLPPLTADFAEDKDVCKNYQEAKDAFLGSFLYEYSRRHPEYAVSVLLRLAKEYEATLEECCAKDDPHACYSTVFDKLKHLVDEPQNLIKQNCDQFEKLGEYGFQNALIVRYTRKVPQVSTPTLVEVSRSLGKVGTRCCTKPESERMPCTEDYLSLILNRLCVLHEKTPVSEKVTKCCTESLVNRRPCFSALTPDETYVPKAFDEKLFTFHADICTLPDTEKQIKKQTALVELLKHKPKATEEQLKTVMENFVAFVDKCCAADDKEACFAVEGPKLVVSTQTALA

## 4-(N-(S-(N-(6-(N-(6-(N-(biotinoyl)amino)hexanoyl)amino)hexanoyl)glutathionyl)acetyl)amino)phenylarsenoxide [GSAO-B]
Thioredoxin
  incorporation of GSAO-B label: incorporated GSAO-B
Human recombinant PDI; 100 μM GSAO-B, 5 μM protein, 30 minutes
  incorporation of GSAO-B label: incorporated GSAO-B
Human recombinant PDI; equivalent moles of protein
  density of labeling of PDI relative to thioredoxin: approximately twice that of thioredoxin
Bovine serum albumin
  incorporation of GSAO-B label: albumin did not
HMEC-1 or HUVE cells; 100 μM GSAO-B with 400 μM DMP
  incorporation in the presence of DMP: effectively no incorporation of GSAO-B in the presence of DMP
HMEC-1 or HUVE cells; 100 μM, 30 minutes
  proteins on the endothelial cell surface that bind the compound: approximately ten proteins
PDI
  labelling of cell surface PDI: PDI was one of the proteins on the endothelial cell surface that incorporated GSAO-B
Cell surface CD4
  labelling of T cell surface CD4: incorporated GSAO-B

## O=[As]c1ccc(NC(=O)CBr)cc1 (stereo not shown) [BRAO, 4-(N-(bromoacetyl)amino)-phenylarsenoxide]
[1]
  stability of solutions towards oxidation: deactivated over time by oxidation

## O=C(CCCC[C@@H]1SC[C@@H]2NC(=O)N[C@@H]21)NCCCC[C@H](NC(=O)CCN1C(=O)C=CC1=O)C(=O)O [MPB, 3-(N-maleimidylpropionyl)biocytin, reference compound]
HIVIIIB
  inhibition of HIVIIIB entry: Inhibition of HIVIIIB entry
